The test system of one assay is E. coli. The assay is described as follows: MIC testing by broth dilution, E. coli plank. It counts as cell-based, Escherichia coli. An outline of the steps: (§1)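 Twofold broth microdilution from 32 μg/ml down to 0.06, in LB for E. coli, Trypticase Soy for S. epidermidis (planktonic) and Brain Heart Infusion for C. jejuni. C. difficile: anaerobic disk diffusion on Wilkins Chalgrin agar, inhibition zone expressed as a ratio to the NTZ zone.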
On the technique in general: Dilution methods test growth across graded concentrations, often in twofold steps.

Assay [1] concerns S. aureus and S. epidermidis strains. Kind of assay: MIC by microdilution in TSB, staphylococcal strains. Conditions: Staphylococcus aureus; staphylococcal strains incl. MRSA S. aureus, microdilution in TSB; read-out: MIC. The format is cell-based, Staphylococcus epidermidis. As to the method: Minimal inhibitory concentration testing of NTZ was done in sterile round bottom 96 well microtiter polystyrene plates (Corning Inc., Corning, N.Y.) by microdilution. Tizoxanide TIZ (deacetylated form of NTZ), denitro-NTZ (TIZ without 5-nitro group) and amoxanide AMIX (TIZ-ethylamine) were also tested. Bacteria were grown overnight and suspended in fresh TSB to an OD600 of 0.01 and 100 μl were dispensed into wells with the first well containing 200 μA NTZ and other antibiotics (DMSO control) were added to well one and serially diluted from 32 μg/ml. All compounds were tested in triplicate and plates were read visually or with a plate reader (Molecular Devices) at 8, 12 and at 24 h. MIC was determined as the first well in which no visible bacterial growth was noted relative to controls. Drug effects on aerobic growth were determined in 125 ml flasks containing 25 ml of TSB medium and following inoculation (detailed above), flasks were on a gyrorotary shaker (200 rpm) at 37° C. Final concentrations of NTZ were 0, 10 and 25 μg/ml and samples were removed at hourly intervals and absorbance determined at 600 nm.

Another assay deals with C. jejuni. Kind of assay: MIC testing by broth dilution, C. jejuni. The format is cell-based, Campylobacter jejuni. An outline of the steps:
as §1

The structures appear in SMILES notation. Values after ≈ are worked out from the molar mass of the structure shown. Like-named read-outs stand apart in the source and are kept apart here.

In the case of `CC(=O)Oc1ccccc1C(=O)Nc1ncc([N+](=O)[O-])s1` [Nitazoxanide, 2-(acetyloxy)-N-(5-nitro-2-thiazolyl)benzamide, reference compound], the minimal inhibitory concentration (MIC) – broadly, the lowest concentration found to suppress growth – in the assay on E. coli (Escherichia coli, broth dilution, LB medium, 24 h, read-out: MIC (μM) E. coli Plank) was 104 µM (≈ 32 µg/mL); in the assay on E. coli (Escherichia coli, planktonic, Furan analogues table, read-out: MIC E. coli Plank), 104 µM (≈ 32 µg/mL); in the assay on E. coli (planktonic, 2-amino-3,5-dinitrothiophene analogues table, read-out: MIC E. coli Plank) it was 104.1 µM (≈ 32 µg/mL); with E. coli (planktonic, Thiophene analogues table, read-out: MIC E. coli Plank), 104.1 µM (≈ 32 µg/mL); in assay [1], 8 to 16 µg/mL (≈ 26 to 52.1 µM); in the assay on C. jejuni (2-amino-3,5-dinitrothiophene analogues table, read-out: MIC C. jejuni), 39.1 µM (≈ 12 µg/mL). Further, the MIC in the assay on C. jejuni (Campylobacter jejuni, Furan analogues table, read-out: MIC C. jejuni) amounted to 39.1 µM (≈ 12 µg/mL); in the assay on C. jejuni (Campylobacter jejuni, broth dilution, Brain Heart Infusion, 24 h, read-out: MIC (μM) C. jejuni), 39.1 µM (≈ 12 µg/mL); in the assay with C. jejuni (Thiophene analogues table, read-out: MIC C. jejuni) it was 39.1 µM (≈ 12 µg/mL).
